ChEMBL document CHEMBL1201862, “PubChem BioAssay data set” (2004)
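Five concentrations, 48 hours, 96-well plates. At the GI50, growth is halved.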 Activity calls are given as the source filed them. Cut-off read from the data, not from the text of the source: active = GI50 up to about 1.1 µM and inactive = higher.

Legend:
Experiment in all cases: NCI tumour cell line growth inhibition, 48 h
[1] = system: Malme-3M
[2] = system: ACHN
[3] = system: SNB-75
[4] = system: Hs-578T
[5] = system: IGROV-1
[6] = system: NCI-H226
[7] = system: HOP-92
[8] = system: SF-268
[9] = system: DU-145
[10] = system: MOLT-4
[11] = system: SR
[12] = system: NCI-H522
[13] = system: PC-3
[14] = system: MCF7
[15] = system: NCI/ADR-RES
[16] = system: SN12C
[17] = system: SK-OV-3
[18] = system: SK-MEL-2
[19] = system: CCRF-CEM
[20] = system: RXF 393

Measured: GI50

O=[N+]([O-])c1ccc2[nH]c(-c3ccc(Cl)cc3)nc2c1
inactive: [1] 28.4 µM | [2] 26.8 µM | [3] 25 µM | [4] 25.5 µM | [5] 31 µM | [6] 22.3 µM | [7] 29 µM | [8] 19 µM | [9] 25.2 µM | [10] 25.4 µM | [11] 26.3 µM | [12] 12.6 µM | [13] 21.4 µM | [14] 18.7 µM | [15] 21.2 µM | [16] 29.7 µM | [17] 24 µM

CN(C)CCCNc1ncnc2[nH]cnc12
inactive: [1] > 100 µM | [18] > 100 µM | [2] > 100 µM | [4] > 100 µM | [5] > 100 µM | [6] > 100 µM | [7] 38.1 µM | [8] > 100 µM | [9] > 100 µM | [10] > 100 µM | [12] > 100 µM | [13] > 100 µM | [14] > 100 µM | [19] > 100 µM | [15] > 100 µM | [20] > 100 µM | [16] > 100 µM | [17] > 100 µM

CCOC(=O)NC(=S)NN(C)C1=NCC(C)(C)S1
inactive: [18] > 100 µM | [2] > 100 µM | [3] > 100 µM | [4] > 100 µM | [5] > 100 µM | [7] > 100 µM | [9] > 100 µM | [10] > 100 µM | [11] > 100 µM | [12] > 100 µM | [13] > 100 µM | [14] > 100 µM | [19] > 100 µM | [20] > 100 µM | [16] > 100 µM | [17] > 100 µM

CCOP(=O)(OCC)/C(C#N)=C/c1coc2cc(C)cc(C)c2c1=O
inactive: [1] > 100 µM | [18] > 100 µM | [2] > 100 µM | [3] > 100 µM | [4] > 100 µM | [5] > 100 µM | [6] > 100 µM | [7] > 100 µM | [8] > 100 µM | [9] > 100 µM | [10] > 100 µM | [11] > 100 µM | [12] > 100 µM | [13] > 100 µM | [14] > 100 µM | [19] > 100 µM | [15] > 100 µM | [16] > 100 µM | [17] > 100 µM

O=C(O)CC1NC(/C(=C/c2ccccc2)NC(=O)c2ccccc2)OC1=O (configuration not stated)
inactive: [1] 36.9 µM | [18] 27.6 µM | [2] > 100 µM | [3] 29 µM | [4] 44.8 µM | [5] 25.1 µM | [6] 21.8 µM | [7] > 100 µM | [8] 36.3 µM | [9] 52.4 µM | [10] 17.7 µM | [12] 16.5 µM | [13] > 100 µM | [14] 47.2 µM | [19] 22.6 µM | [15] 21.7 µM | [20] 34.5 µM | [16] 43.3 µM | [17] 55.3 µM

C=C[C@@]1(O)CCCC[C@@H]1CC(Sc1ccccc1)Sc1ccccc1
inactive: [1] 14.6 µM | [18] 16 µM | [2] 67.5 µM | [3] 13.7 µM | [4] 15.5 µM | [5] 14.9 µM | [6] 21.8 µM | [8] 15.5 µM | [9] 17.7 µM | [10] 31.1 µM | [11] 37.1 µM | [12] 13.4 µM | [13] 14.3 µM | [14] 16.7 µM | [19] 30.6 µM | [15] 19.8 µM | [20] 14.9 µM | [16] 18.2 µM | [17] 16.4 µM

CC1CCCN(CC(O)CN2CCCc3ccccc32)C1 (configuration not stated)
inactive: [1] > 100 µM | [18] > 100 µM | [2] > 100 µM | [3] > 100 µM | [4] 56.2 µM | [5] > 100 µM | [6] > 100 µM | [8] > 100 µM | [9] > 100 µM | [10] > 100 µM | [11] > 100 µM | [12] 64.4 µM | [13] > 100 µM | [14] > 100 µM | [19] > 100 µM | [15] > 100 µM | [20] > 100 µM | [16] > 100 µM | [17] > 100 µM
